Columns and labels:
[1] = tested on: RIPK1 (Receptor-interacting serine/threonine-protein kinase 1); test: TEAR1 target engagement immunoassay in monkey whole blood and tissues after IV dosing; design: species or system Macaca fascicularis
[2] = molecular target: T1, RIPK1 (Receptor-interacting serine/threonine-protein kinase 1) (Homo sapiens, UniProt Q13546); test: TEAR1 target engagement immunoassay (FREE-RIPK1/TOTAL-RIPK1) in HT29 cells; type: cell-based
T1 sequence (Q13546 1-671): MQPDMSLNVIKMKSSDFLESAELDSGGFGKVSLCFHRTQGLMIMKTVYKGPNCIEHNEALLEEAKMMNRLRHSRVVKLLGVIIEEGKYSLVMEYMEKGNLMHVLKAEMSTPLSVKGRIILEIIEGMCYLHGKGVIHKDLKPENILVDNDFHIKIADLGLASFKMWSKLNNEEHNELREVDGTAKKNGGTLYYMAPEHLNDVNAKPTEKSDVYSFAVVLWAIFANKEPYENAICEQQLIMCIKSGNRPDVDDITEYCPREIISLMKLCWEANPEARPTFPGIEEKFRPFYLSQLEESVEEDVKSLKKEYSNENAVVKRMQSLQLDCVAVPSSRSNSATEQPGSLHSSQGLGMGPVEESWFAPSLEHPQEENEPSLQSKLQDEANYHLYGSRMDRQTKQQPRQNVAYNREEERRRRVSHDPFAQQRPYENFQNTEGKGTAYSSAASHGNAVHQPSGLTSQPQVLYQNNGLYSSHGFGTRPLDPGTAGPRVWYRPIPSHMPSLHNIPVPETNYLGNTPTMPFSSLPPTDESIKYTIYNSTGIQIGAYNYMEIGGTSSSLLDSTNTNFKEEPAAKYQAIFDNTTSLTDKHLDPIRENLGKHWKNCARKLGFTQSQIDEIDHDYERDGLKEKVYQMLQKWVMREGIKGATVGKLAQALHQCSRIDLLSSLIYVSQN

GSK3011253 [GSK'253]
IC50 [1]: 3.1 ng/mL
IC50 [2]: 0.5 nM
